Test results: publication PMC12664280, “Integrative transcriptomics and peptidomics approach reveals unexpectedly diverse endogenous secretory peptides in Odorrana grahami frog skin” (BMC Biology, 2025)
Converted amounts (≈) assume the structure as drawn. Where a SMILES comes first, the peptide text is derived from it. Bridges are numbered along the chain shown (N, C = ends).

Columns and labels:
Type in all cases: cell-based
[1] = test system: Pseudomonas aeruginosa ATCC 27853; assay: Antimicrobial assay, MIC by broth microdilution; settings: ATCC27853, highest test concentration 128 μg/mL, read-out: minimum inhibitory concentration (MIC), Pseudomonas aeruginosa
Experimental: (§1) Ranatuerin-2P-OG1 synthesis was performed by Royobiotech Co., Ltd. (Shanghai, China) using solid-phase peptide synthesis. The crude peptide was purified by RP-HPLC and its purity was confirmed to exceed 90% via ESI-MS analysis. Antimicrobial assays with various microbial strains were conducted, including gram-positive Staphylococcus aureus ATCC 29213 and its methicillin-resistant variant (MRSA) CIB 8546, Enterococcus faecalis ATCC 29212, gram-negative Pseudomonas aeruginosa ATCC 27853 and Escherichia coli ATCC 25922, and fungal Candida albicans CCMCC(F) 98001. Bacterial cultures were maintained in cation-adjusted Mueller-Hinton broth (MHB) at 35°C for 16-20 h, whereas fungal cultures were grown in Sabouraud dextrose broth (SDB) at 28°C for 48 h.

[2] = test system: Enterococcus faecalis ATCC 29212; assay: microbe, parasite or virus in culture
Experimental: as §1

[3] = test system: Escherichia coli ATCC 25922; assay: microbe, parasite or virus in culture
Experimental: as §1

[4] = test system: Staphylococcus aureus ATCC 29213; assay: microbe, parasite or virus in culture
Experimental: as §1

[5] = test system: methicillin-resistant Staphylococcus aureus (MRSA) CIB 8546; assay: microbe, parasite or virus in culture
Experimental: as §1

[6] = test system: Candida albicans CCMCC(F) 98001
Experimental: as §1

Compound | MIC [1] [µg/mL] | MIC ([2]; ATCC29212, broth microdilution, Enterococcus faecalis ATCC 29212, read-out: minimum inhibitory concentration (MIC), Enterococcus faecalis) [µg/mL] | MIC ([3]; ATCC25922, broth microdilution, Escherichia coli ATCC 25922, read-out: minimum inhibitory concentration (MIC), Escherichia coli) [µg/mL] | MIC ([4]; ATCC29213, broth microdilution, Staphylococcus aureus ATCC 29213, read-out: minimum inhibitory concentration (MIC), Staphylococcus aureus) [µg/mL] | MIC ([5]; Staphylococcus aureus, broth microdilution, MRSA CIB 8546, read-out: minimum inhibitory concentration (MIC), MRSA) [µg/mL] | minimum inhibitory concentration (MIC), Enterococcus faecalis ([2]; ATCC 29212) [µg/mL] | minimum inhibitory concentration (MIC), Escherichia coli ([3]; ATCC 25922) [µg/mL] | minimum inhibitory concentration (MIC), Staphylococcus aureus ([4]; ATCC 29213) [µg/mL] | minimum inhibitory concentration (MIC), MRSA ([5]; methicillin-resistant CIB 8546) [µg/mL] | minimum inhibitory concentration (MIC), Candida albicans [6] [µg/mL]
CC1(C)S[C@@H]2[C@H](NC(=O)[C@H](N)c3ccccc3)C(=O)N2[C@H]1C(=O)O [Ampicillin, reference compound] | > 128 | 2 (≈ 5.72 µM) | 8 (≈ 22.9 µM) | 1 (≈ 2.86 µM) | 128 (≈ 366 µM) |  |  |  |  | 
CC[C@H](C)[C@H](NC(=O)[C@H](CCCCN)NC(=O)[C@H](CC(=O)O)NC(=O)[C@H](CCCCN)NC(=O)[C@@H](NC(=O)[C@@H](NC(=O)CNC(=O)[C@H](C)NC(=O)[C@@H](NC(=O)[C@H](CC(N)=O)NC(=O)[C@@H](NC(=O)[C@H](CC(C)C)NC(=O)[C@@H](NC(=O)[C@H](CC(N)=O)NC(=O)[C@H](CC(C)C)NC(=O)[C@@H](NC(=O)[C@@H](NC(=O)[C@H](CC(N)=O)NC(=O)[C@H](CCSC)NC(=O)[C@H](CC(C)C)NC(=O)CN)[C@@H](C)O)C(C)C)C(C)C)[C@@H](C)O)C(C)C)[C@@H](C)O)C(C)C)C(=O)N[C@@H](CCCCN)C(=O)N[C@H]1CSSC[C@@H](C(=O)O)NC(=O)CNC(=O)CNC(=O)[C@H]([C@@H](C)O)NC(=O)[C@H](Cc2ccccc2)NC(=O)[C@H](CCCCN)NC1=O [ranatuerin-2P-OG1] (H-GLMNTVLNVLTNVAGTVKDKIKCKFTGGC-OH; disulfide 23-29) |  |  |  |  |  | 256 (≈ 84.7 µM) | 128 (≈ 42.3 µM) | 64 (≈ 21.2 µM) | 64 (≈ 21.2 µM) | 512 (≈ 169 µM)
